Test results as given in patent US10080777B2, “Syndecan peptides and polypeptides and uses thereof” (WISCONSIN ALUMNI RESEARCH FOUNDATION, priority 2012, dated 2018).
“Also recorded” adds a separate entry of the source. Ends that are not written are not given here.

What was measured:
[1] = tested on: human HaCat keratinocytes or MCF10A mammary epithelial cells; assay: Competition of GST-fusion proteins or synthetic peptides in EGF-stimulated scratch wound migration (FIG. 8 summary); format: cell-based; details: for competitive activity: FIGS. 8A-C
Method: FIGS. 8A-C. […] GST-fusion proteins or synthetic peptides were added at concentrations ranging from 0.1 to 30 μM to the culture medium of human HaCat keratinocytes or MCF10A mammary epithelial cells in the presence or absence of 20 ng/ml EGF. The ability of the constructs to inhibit the migration of the cells to close a scratch wound in confluent monolayers was determined and express as the concentration of inhibitor necessary to cause 50% inhibition of cell migration. (FIG. 8A) Competition using recombinant GST-fusion proteins. GST-Sdc4 fusion proteins bearing truncations or mutations were assessed for their competitive activity. […] (FIG. 8B) Schematic representation of the active site in Sdc4. The active site is shown as a juxtamembrane site in the ectodomain of Sdc4. TM is the transmembrane domain and CYTO is the cytoplasmic domain. The sequence of a peptide derived from this site ([…]) (SEQ ID NO: 4) is shown along with its homology across other mammalian Sdc4 species (SEQ ID NO: 12) and its homology to Sdc4 derived from zebrafish (SEQ ID NO: 13), identifying highly conserved amino acids at the extreme N- and C-terminus of the peptide. (FIG. 8C) Competition with synthetic peptides. Peptides were purchased from commercial sources for testing as a putative synstatin inhibitory peptide ([…]). Mutation of isoleucine at position 89 to alanine (I89A), or mutation of amino acids 99-108 to alanine (99-108A) reduce the activity by 10-fold. Truncation of amino acids 126-131 at the C-terminus (4126-131) reduces the activity by at least 100-fold.
Wound healing assay. HaCat or MCF10A cells grown to confluence on 48 well-plates were starved for 6 hr by serum deprivation followed by introduction of a scratch wound in the monolayer using 200 μl pipette tip. […] Images were acquired using a PlanApo 20 (0.75 numerical aperture) objective and a Photometrics CoolSnap ES camera on a Nikon Eclipse TE2000U microscopy system and wound closure quantified.

fibroblasts = details: McFall et al.; cited from earlier work
HaCat keratinocytes = assay: EGF-stimulated scratch wound closure (chemotactic migration) of HaCat keratinocytes; format: cell-based, human; details: EGF 10 ng/ml
[2] = tested on: HaCat human keratinocytes; assay: Total cell number, CellTiterGLO assay, HaCat; format: cell-based; details: 3-30 μM; 4 or 7 days; normal epithelium
Method: (§1) FIGS. 9A-F. SSTN treatment of normal (nontransformed) epithelial cells versus carcinoma (transformed) cells. Cells are plated for one day, then treated with either 3-30 μM […] (SSTN-I), 3-30 μM […] (SSTN-E), 3-30 μM SSTNHER2 (SSTN-H) or combinations of the three peptides, each at 10 μM to test their additive effect. […] The treatment times are chosen to reflect only modest effects of the peptides used singly, so that the more pronounced effect of peptides used in combination can still be observed. Treatment for longer times leads to significant cell death observed even with single peptides alone. (FIG. 9A) HaCat human keratinocytes, an example of a normal stratified epithelium, (FIG. 9B) UM-SCC47 cells, a squamous cell carcinoma derived from the tongue of a patient (a stratrified epithelium), (FIG. 9C) SCC25 cells, another squamous cell carcinoma from the tongue of a patient), (FIG. 9D) MCF10A cells, a normal human breast epithelium, (FIG. 9E) MDA-MB-468 cells, a triple-negative (TN) breast carcinoma, and (FIG. 9F) SKBr3 cells, a HER2+ human breast carcinoma. Note that all four carcinomas are inhibited by […], and this is enhanced when […] is combined with the other SSTN peptides, leading to obvious cell death (e.g., the number of cells at the end of the experiment are less than at the beginning).
(§2) Apoptosis assay. […]

MCF10A cells = assay: Total cell number, CellTiterGLO assay, MCF10A; format: cell-based, human; details: 3-30 μM; 4 or 7 days; normal epithelium
Method: as §1, §2

UM-SCC47 cells = assay: Total cell number, CellTiterGLO assay, UM-SCC47; format: cell-based, human; details: 3-30 μM; combinations each at 10 μM; 4 or 7 days
Method: as §1, §2

SCC25 cells = assay: Total cell number, CellTiterGLO assay, SCC25; format: cell-based, human; details: 3-30 μM; combinations each at 10 μM; 4 or 7 days
Method: as §1, §2

MDA-MB-468 cells = assay: Total cell number, CellTiterGLO assay, MDA-MB-468; format: cell-based, human; details: 3-30 μM; combinations each at 10 μM; 4 or 7 days
Method: as §1, §2

SKBr3 cells = assay: Total cell number, CellTiterGLO assay, SKBr3; format: cell-based, human; details: 3-30 μM; combinations each at 10 μM; 4 or 7 days
Method: as §1, §2

[3] = tested on: MCF10A mammary epithelial cells
Method: Migration of human MCF10A mammary epithelial cells in response to EGF (10 ng/ml) is tested in 12 hr scratch wound closure assays.
Wound healing assay. HaCat or MCF10A cells grown to confluence on 48 well-plates were starved for 6 hr by serum deprivation followed by introduction of a scratch wound in the monolayer using 200 μl pipette tip. […] To cause EGF-stimulated chemotactic migration that depends on Sdc4, cells were stimulated with EGF (10 ng/ml). Images were acquired using a PlanApo 20 (0.75 numerical aperture) objective and a Photometrics CoolSnap ES camera on a Nikon Eclipse TE2000U microscopy system and wound closure quantified.

[4] = tested on: MDA-MB-468 breast carcinoma; assay: MDA-MB-468 breast carcinoma subcutaneous tumor growth in nude mice, Alzet pump delivery; format: in vivo, nude (nu/nu) mice; details: 400 μM in pump, 0.25 μL/hr systemic, 8 wks, started 2 weeks after implantation
Method: (§3) FIG. 10. S4ED blocks MDA-MB-468 breast carcinoma growth in vivo. Human MDA-MB-468 breast carcinoma cells were implanted subcutaneously on the flank of nude (nu/nu) mice and allowed to grow for 2 weeks to form palpable tumors (dotted blue line indicates size after 2 weeks). At that time, systemic delivery (0.25 μL/hr) of 400 μM recombinant GST-S4ED, GST alone or saline alone (no treatment) was initiated by surgical implantation of Alzet pumps on the behind the shoulder blades of the animals for 4 wks, followed by replacement with pumps containing fresh protein for an additional 4 wks. Tumor size was measured with calipers at 2 week intervals. Error bars denote S.D., 10 tumors/treatment group.
(§4) The inventor has tested the entire recombinant S4ED protein (as a GST-S4ED fusion protein) as an inhibitor against one of these carcinoma cells (the MDA-MB-468 cells) during tumor growth in immunocompromised nude (nu/nu) mice.

[5] = Estimated blood concentration during Alzet pump delivery; format: in vivo, nude (nu/nu) mice; details: 400 μM in the pump
Method: as §3, §4

EGFR = target: T1, EGFR (Homo sapiens, UniProt P00533); assay: Capture of EGFR from cell lysates by GST-ectodomain on glutathione beads; format: binding; details: lysates of EGF-stimulated A431 cells / HaCat cell lysates, western blot
T1 construct: endogenous in cells
Method: (§5) (FIG. 6A) Mouse syndecan chimeras in which their ectodomains are switched are expressed in HaCat cells, then immunoprecipitated with antibodies specific for the mouse syndecan ectodomains. […] Also note that these complexes assemble only upon EGF treatment.
(§6) Immunoprecipitation. Immunoprecipitations were carried out as described previously (Beauvais et al., 2004; Beauvais et al., 2006). Cells were washed once with washing buffer (50 mM Hepes, 50 mM NaCl and 10 mM EDTA, pH 7.4) and lysed for 20 min on ice in 1% Triton X-100 containing a 1:1000 dilution of protease inhibitor mixture set III (Calbiochem) in washing buffer. Cell debris was removed by centrifugation at 20,000 g for 15 min at 4° C. Lysates or 6×His-tagged β4 cytoplasmic domain (amino acids 1677-1752) were incubated at 4° C. overnight with 100 μl Glutathione Sepharose 4B beads (50% in IP wash buffer), GST-S4CD or GST-S1CD in present or absent of different peptides. Samples were resolved by electrophoresis under reduced conditions on a 15% Laemmli gel, transferred to Immobilon P, and probed with primary antibody followed by an alkaline phosphatase-conjugated secondary antibody. Visualization of immune-reactive bands was performed using ECF reagent (GE Healthcare) and scanned on a Typhoon Trio Variable Mode Imager (GE-Healthcare) in blue fluorescence. […]

HER2 = target: T2, HER2 (Homo sapiens, UniProt P04626); assay: Capture of HER2 from cell lysates by GST-ectodomain on glutathione beads; format: binding; details: lysates of EGF-stimulated A431 cells; western blot
T2 construct: endogenous in cells
Method: as §5, §6

α6β4 integrin = target: T3, α6β4 integrin (Homo sapiens, UniProt P16144+P23229); assay: Capture of α6β4 integrin from cell lysates by GST-ectodomain on glutathione beads; format: binding; details: re-probed blot, data not shown
T3 construct: endogenous in cells
T3 sequence (P23229 24-1130): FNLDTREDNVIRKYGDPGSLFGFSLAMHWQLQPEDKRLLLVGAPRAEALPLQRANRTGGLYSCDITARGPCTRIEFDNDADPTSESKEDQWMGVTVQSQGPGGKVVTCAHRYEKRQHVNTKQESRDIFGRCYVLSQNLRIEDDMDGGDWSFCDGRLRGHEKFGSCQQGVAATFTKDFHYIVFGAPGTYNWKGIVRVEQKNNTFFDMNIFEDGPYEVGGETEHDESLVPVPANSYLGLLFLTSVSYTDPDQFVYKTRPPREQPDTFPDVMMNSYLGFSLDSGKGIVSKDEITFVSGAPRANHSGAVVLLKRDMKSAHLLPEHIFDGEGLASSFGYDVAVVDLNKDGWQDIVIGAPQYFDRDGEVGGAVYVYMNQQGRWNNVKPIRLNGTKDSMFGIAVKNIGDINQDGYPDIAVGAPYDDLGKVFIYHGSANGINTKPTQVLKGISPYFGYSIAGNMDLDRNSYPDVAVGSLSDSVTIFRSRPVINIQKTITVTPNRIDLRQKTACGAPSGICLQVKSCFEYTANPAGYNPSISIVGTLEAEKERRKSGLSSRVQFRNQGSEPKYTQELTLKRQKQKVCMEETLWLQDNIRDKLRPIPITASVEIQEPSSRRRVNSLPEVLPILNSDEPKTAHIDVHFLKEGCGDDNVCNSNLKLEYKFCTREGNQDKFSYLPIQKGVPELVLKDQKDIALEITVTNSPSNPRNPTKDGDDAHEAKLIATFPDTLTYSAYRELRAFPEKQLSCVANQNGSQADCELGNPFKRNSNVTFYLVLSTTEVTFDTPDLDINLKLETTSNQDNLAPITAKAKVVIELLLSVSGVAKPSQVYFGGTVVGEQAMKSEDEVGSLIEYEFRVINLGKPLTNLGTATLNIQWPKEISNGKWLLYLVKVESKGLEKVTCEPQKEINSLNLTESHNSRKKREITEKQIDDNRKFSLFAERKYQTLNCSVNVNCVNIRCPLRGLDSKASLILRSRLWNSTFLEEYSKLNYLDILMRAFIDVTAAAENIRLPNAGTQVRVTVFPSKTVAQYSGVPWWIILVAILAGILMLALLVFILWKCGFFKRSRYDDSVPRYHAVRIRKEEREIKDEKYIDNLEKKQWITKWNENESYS
T3 sequence (P23229 942-1130 limits assumed): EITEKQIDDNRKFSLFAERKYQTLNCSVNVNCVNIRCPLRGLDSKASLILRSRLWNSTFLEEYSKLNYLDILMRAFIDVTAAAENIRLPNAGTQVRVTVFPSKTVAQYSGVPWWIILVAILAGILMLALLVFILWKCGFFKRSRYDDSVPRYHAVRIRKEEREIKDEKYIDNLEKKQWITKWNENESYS
T3 sequence (P16144 28-1752 isoform P16144-2 limits assumed): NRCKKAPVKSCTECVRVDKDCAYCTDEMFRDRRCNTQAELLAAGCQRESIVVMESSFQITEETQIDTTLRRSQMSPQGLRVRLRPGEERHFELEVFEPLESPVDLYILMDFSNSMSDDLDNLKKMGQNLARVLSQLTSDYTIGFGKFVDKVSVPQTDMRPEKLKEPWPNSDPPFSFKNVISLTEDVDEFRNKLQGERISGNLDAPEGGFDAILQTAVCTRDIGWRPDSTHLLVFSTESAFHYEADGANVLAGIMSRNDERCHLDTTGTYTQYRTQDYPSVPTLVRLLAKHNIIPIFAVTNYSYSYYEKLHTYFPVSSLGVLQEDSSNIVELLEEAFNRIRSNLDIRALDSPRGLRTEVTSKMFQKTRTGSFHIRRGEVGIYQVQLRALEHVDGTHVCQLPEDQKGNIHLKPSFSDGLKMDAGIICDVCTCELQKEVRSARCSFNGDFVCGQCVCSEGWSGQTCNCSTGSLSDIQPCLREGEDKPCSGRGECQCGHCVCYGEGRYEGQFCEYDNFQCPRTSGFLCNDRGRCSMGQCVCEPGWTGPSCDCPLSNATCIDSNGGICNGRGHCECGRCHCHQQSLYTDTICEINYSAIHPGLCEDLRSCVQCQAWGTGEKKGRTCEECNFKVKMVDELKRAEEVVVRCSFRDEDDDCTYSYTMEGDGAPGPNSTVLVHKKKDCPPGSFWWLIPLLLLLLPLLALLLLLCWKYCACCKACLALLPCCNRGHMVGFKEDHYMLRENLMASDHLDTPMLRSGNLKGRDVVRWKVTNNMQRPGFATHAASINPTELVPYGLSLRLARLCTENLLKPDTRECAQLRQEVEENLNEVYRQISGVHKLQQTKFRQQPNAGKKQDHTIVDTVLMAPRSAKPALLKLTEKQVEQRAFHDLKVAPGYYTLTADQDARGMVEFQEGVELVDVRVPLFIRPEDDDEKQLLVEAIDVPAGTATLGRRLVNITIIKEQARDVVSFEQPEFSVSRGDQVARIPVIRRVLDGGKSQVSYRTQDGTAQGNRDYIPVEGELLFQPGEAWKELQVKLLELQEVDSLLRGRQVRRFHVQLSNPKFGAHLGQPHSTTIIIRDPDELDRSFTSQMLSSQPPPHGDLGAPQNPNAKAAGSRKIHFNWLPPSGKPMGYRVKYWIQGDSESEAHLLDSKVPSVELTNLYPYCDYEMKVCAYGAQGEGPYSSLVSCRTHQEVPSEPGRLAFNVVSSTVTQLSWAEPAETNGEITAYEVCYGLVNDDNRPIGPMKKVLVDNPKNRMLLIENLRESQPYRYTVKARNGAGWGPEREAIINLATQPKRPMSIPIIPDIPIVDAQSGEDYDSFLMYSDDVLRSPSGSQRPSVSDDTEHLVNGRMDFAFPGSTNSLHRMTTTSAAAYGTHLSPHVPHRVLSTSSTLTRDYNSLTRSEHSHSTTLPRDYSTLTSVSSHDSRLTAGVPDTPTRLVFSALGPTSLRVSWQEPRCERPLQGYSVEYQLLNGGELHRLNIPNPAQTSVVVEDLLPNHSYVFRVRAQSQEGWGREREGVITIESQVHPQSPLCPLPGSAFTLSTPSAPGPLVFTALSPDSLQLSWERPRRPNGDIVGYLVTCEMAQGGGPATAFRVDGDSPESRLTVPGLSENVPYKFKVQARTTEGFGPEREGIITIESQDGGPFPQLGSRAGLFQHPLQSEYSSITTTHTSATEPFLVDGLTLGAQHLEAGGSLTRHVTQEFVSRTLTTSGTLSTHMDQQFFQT
Method: Immunoprecipitation. Immunoprecipitations were carried out as described previously (Beauvais et al., 2004; Beauvais et al., 2006). Cells were washed once with washing buffer (50 mM Hepes, 50 mM NaCl and 10 mM EDTA, pH 7.4) and lysed for 20 min on ice in 1% Triton X-100 containing a 1:1000 dilution of protease inhibitor mixture set III (Calbiochem) in washing buffer. Cell debris was removed by centrifugation at 20,000 g for 15 min at 4° C. Lysates or 6×His-tagged β4 cytoplasmic domain (amino acids 1677-1752) were incubated at 4° C. overnight with 100 μl Glutathione Sepharose 4B beads (50% in IP wash buffer), GST-S4CD or GST-S1CD in present or absent of different peptides. Samples were resolved by electrophoresis under reduced conditions on a 15% Laemmli gel, transferred to Immobilon P, and probed with primary antibody followed by an alkaline phosphatase-conjugated secondary antibody. Visualization of immune-reactive bands was performed using ECF reagent (GE Healthcare) and scanned on a Typhoon Trio Variable Mode Imager (GE-Healthcare) in blue fluorescence.
The inventor's prior work has shown that Sdc1 contains a site in its extracellular domain to capture the αvβ3 or αvβ5 integrin and the insulin-like growth factor-1 receptor (IGF1-R) (Beauvais et al., 2009; Beauvais & Rapraeger, 2010). […]

## 4126-131: synthetic peptide with truncation of amino acids 126-131 at the C-terminus (NHIPERAGSGSQVPTEPKKLEENEVIPKRISPVEESEDV)
[1]; 0.1 to 30 μM, 20 ng/ml EGF, FIG. 8C
  reduction of competitive activity, synthetic peptide variants versus peptide 87-131: at least 100 fold

## S4ED98-131: truncated Sdc4 ectodomain, amino acids 98-131 (QVPTEPKKLEENEVIPKRISPVEESEDVSNKVSM)
[1]
  competitive activity: ca. 10%
fibroblasts
  loss of activity versus S4ED78-131 as competitor for cell adhesion: 100 fold

## NHIPERAGSGSQVPTEPKKLEENEVIPKRISPVEESEDVSNKVSM
HaCat keratinocytes
  effect on EGF-induced migration / wound closure (in words): blocks
[2]
  growth or survival (total cell number): no effect
MCF10A cells
  growth or survival (total cell number): no effect
UM-SCC47 cells
  growth/survival (total cell number): do target growth/survival mechanisms; also recorded: inhibited
SCC25 cells
  growth/survival (total cell number): do target growth/survival mechanisms; also recorded: inhibited
MDA-MB-468 cells
  growth/survival (total cell number): do target growth/survival mechanisms; also recorded: inhibited
SKBr3 cells
  growth/survival (total cell number): do target growth/survival mechanisms; also recorded: inhibited
[3]; 12 h
  IC50: 100 to 300 nM
[3]; EGF 10 ng/ml, scratch wound closure
  effect on EGF-stimulated migration/chemotaxis (in words): blocks

## COc1cc2ncnc(Nc3ccc(F)c(Cl)c3)c2cc1OCCCN1CCOCC1 [Iressa]
HaCat keratinocytes; 1 μM Iressa
  effect on EGF-induced migration / wound closure (in words): does block wound closure; also recorded: blocked

## COc1cc(/C=C(\C#N)C(N)=O)cc(CSc2nc3ccccc3s2)c1O [AG825]
HaCat keratinocytes; 10 μM AG825
  effect on EGF-induced migration / wound closure (in words): not inhibited; also recorded: not by the tyrphostin AG825

## S4ED 78-118: truncated Sdc4 ectodomain, amino acids 78-118 (VVHPLVPLDNHIPERAGSGSQVPTEPKKLEENEVIPKRISP)
[1]
  competitive activity: ca. 10%
fibroblasts
  activity as competitor for cell adhesion to full-length S4ED (in words): completely inactive

B1: GST-S4ED: recombinant Sdc4 ectodomain GST fusion protein (protein)
chain: ESIRETEVIDPQDLLEGRYFSGALPDDEDVVGPGQESDDFELSGSGDLDDLEDSMIGPEVVHPLVPLDNHIPERAGSGSQVPTEPKKLEENEVIPKRISPVEESEDVSNKVSMSSTVQGSNIFERTE
modifications: left off: a dimerising Fc or GST
notes: recombinant Sdc4 ectodomain GST fusion protein
[4]
  tumor growth: tumor growth leveling off
[4]; listed as S4ED
  tumor growth: blocks
[5]
  estimated concentration in the blood: 2 to 3 µM
EGFR
  capture of EGFR: captures
EGFR; listed as S4ED
  capture of EGFR: captures only EGFR
HER2
  capture of HER2: captures only EGFR
α6β4 integrin
  capture of α6β4 integrin: also captured
[3]; 10 μM, EGF 10 ng/ml, 12 hr scratch wound closure
  block of EGF-stimulated migration: 80%
